The values that follow come from article PMC4871321 (Angewandte Chemie (Weinheim an Der Bergstrasse, Germany), 2015).

The target in the experiment is T1, BRD4(1) (Homo sapiens, UniProt O60885).
T1 construct: first bromodomain
The experiment in a line: biochemical. More on the design: differential scanning fluorimetry, SYPRO Orange, shift of melting temperature of 2 uM bromodomain. The settings on record: read-out: BRD4(1) ΔTm (°C).

The ΔTm is the shift of the melting midpoint relative to a reference. For the compound `Cc1cc(=O)n(C)c2cc(N3C[C@@H](NC(=O)OC(C)(C)C)[C@H](C)CC3=O)ccc12` (relative stereo) [compound 22, 22], the shift in melting temperature (ΔTm) at 10 µM was 0.19 °C. The result for `Cc1cc(=O)n(C)c2cc(N3C(=O)CC[C@H](NC(=O)OC(C)(C)C)[C@H]3C)ccc12` (relative stereo) [compound 21, 21] reads 0.33 °C.
